According to patent US4258058A, “Phenoxyalkylcarboxylic acid compounds and thrombocyte-aggregation inhibition” (Boehringer Mannheim GmbH, priority 1978, dated 1981):

Each compound was assayed on thrombocyte aggregation (assay: Born test: inhibition of the second phase of adrenalin induced thrombocyte aggregation in platelet-rich plasma (PRP)). Conditions: Homo sapiens, at 5 × 10^-5 m, induced by 5×10^-6 m adrenalin, read-out: Percent Inhibition Of Thrombocyte Aggregation.
Assay type: cell-based, human
Excerpt: In a series of determinations utilizing the Born test, venous blood from metabolically healthy persons was mixed with sodium citrate in a ratio of 9:1 and the erythrocytes precipitated by centrifuging at 150 g. The filtrate is enriched in thrombocytes and this filtrate is designated as platelet-rich plasma (PRP). One aliquot of the PRP is placed in the cuvette of an aggregometer (Universal Aggregometer, manufactured by Braun Melsungen, West Germany) and stirred with a magnetic stirrer. The substance to be tested is added in the form of an aqueous solution at a pH of about 7. Changes in the light transmission of the suspension are continuously recorded. After spontaneous aggregation ceases, further aggregation is induced by the addition of 5×10^-6 m adrenalin, forming larger thrombocyte aggregates and increasing the light transmission through the suspension.
The adrenalin induced aggregation takes place in two phases, i.e., the light transmission initially increases, then stagnates temporarily, and then increases again. Only the second phase of the aggregation can be influenced by aggregation inhibitors. For an evaluation of the results there is first established, in a control experiment using no test compound, the angle of the second aggregation phase against the horizontal for adrenalin induced aggregation and this is designated as 0% inhibition. Utilizing the same PRP, the test compound is added and aggregation is induced with adrenalin, and the course of aggregation continuously recorded. The angle of the second aggregation phase against the horizontal is again determined and the relationship of this angle against the angle determined in the control experiment yields the percent inhibition of the second phase of the thrombocyte aggregation.
The standard material "Colfarit" (acetylsalicylic acid) yields 100% inhibition at a concentration of 10^-4 m and 0% inhibition at a concentration of 5×10^-5 m. At the latter concentration the inventive compounds yielded the following results: […]

Structure (SMILES) | inhibition at 50 µM [%]
O=C(O)COc1ccc(CCNS(=O)(=O)c2cccc3ccccc23)cc1 [4-[2-(1-naphthalenesulphonylamino)-ethyl]-phenoxyacetic acid] | 100
CC(=O)c1ccc(S(=O)(=O)NCCc2ccc(OCC(=O)O)cc2)cc1 [4-[2-(4-acetylbenzenesulphonylamino)-ethyl]-phenoxyacetic acid] | 100
Cc1ccc(S(=O)(=O)NCCc2ccc(OCC(=O)O)cc2)cc1 [4-[2-(p-toluenesulphonylamino)-ethyl]-phenoxyacetic acid] | 100
O=C(O)COc1ccc(CCNS(=O)(=O)c2ccc(F)cc2)cc1 [4-[2-(4-Fluorobenzenesulphonylamino)-ethyl]-phenoxyacetic acid] | 100
CC(C)(Oc1ccc(CCNS(=O)(=O)c2ccccc2)cc1)C(=O)O [2-{4-[2-(Benzenesulphonylamino)-ethyl]-phenoxy}-2-methylpropionic acid] | 20
CC(=O)Oc1ccccc1C(=O)O [Colfarit, acetylsalicylic acid, reference compound] | 0
CC(C)OC(=O)COc1ccc(CCNS(=O)(=O)c2ccccc2)cc1 [Isopropyl 4-[2-(benzenesulphonylamino)-ethyl]-phenoxyacetate] | 100
CC(C)(Oc1ccc(CCNS(=O)(=O)c2ccc(Cl)cc2)cc1)C(=O)O [2-{4-[2-(4-Chlorobenzenesulphonylamino)-ethyl]-phenoxy}-2-methylpropionic acid] | 100
CC(CO)NC(=O)COc1ccc(CCNS(=O)(=O)c2ccccc2)cc1 (stereo not drawn) [4-[2-(Benzenesulphonylamino)-ethyl]-phenoxyacetic acid 1-hydroxy-2-propylamide] | 10
O=C(O)COc1ccc(CCNS(=O)(=O)c2ccccc2)cc1 [4-[2-(Benzenesulphonylamino)-ethyl]-phenoxyacetic acid] | 100
CCOC(=O)CCNC(=O)COc1ccc(CCNS(=O)(=O)c2ccccc2)cc1 [4-[2-(Benzenesulphonylamino)-ethyl]-phenoxyacetic acid 2-ethoxycarbonylethylamide] | 100
O=C(O)COc1ccc(CCCNS(=O)(=O)c2ccccc2)cc1 [4-[3-(Benzenesulphonylamino)-propyl]-phenoxyacetic acid] | 100
O=C(O)COc1ccc(CNS(=O)(=O)c2ccccc2)cc1 [4-(Benzenesulphonylaminomethyl)-phenoxyacetic acid] | 20
O=C(O)COc1ccc(CCNS(=O)(=O)c2ccc(Cl)cc2)cc1 [4-[2-(4-chlorobenzenesulphonylamino)-ethyl]-phenoxyacetic acid] | 100

Same assay, conditions: at 10^-4 m, induced by adrenalin

Structure (SMILES) | inhibition of thrombocyte aggregation [%]
CC(=O)Oc1ccccc1C(=O)O [Colfarit, acetylsalicylic acid, reference compound] | 100
